Where two headings read alike, the source gives them in different places.
Legend:
[1] = target: T1, GST-tagged human ROCK1 catalytic domain 1-477 (Homo sapiens, UniProt Q13464); experiment: Isolated Enzyme Assay, ROCK1 (LANCE Ultra ULight-CREBtide FRET); type: biochemical; conditions: 30 μM highest concentration tested, read-out: Results from Isolated Enzyme Assay IC50 (μM) ROCK1
T1 construct: human ROCK1 catalytic domain 1-477 from Carna Biosciences (cat #01-109); purchased Carna Biosciences 01-109; host or cells: baculovirus expression system
T1 sequence (Q13464 1-477): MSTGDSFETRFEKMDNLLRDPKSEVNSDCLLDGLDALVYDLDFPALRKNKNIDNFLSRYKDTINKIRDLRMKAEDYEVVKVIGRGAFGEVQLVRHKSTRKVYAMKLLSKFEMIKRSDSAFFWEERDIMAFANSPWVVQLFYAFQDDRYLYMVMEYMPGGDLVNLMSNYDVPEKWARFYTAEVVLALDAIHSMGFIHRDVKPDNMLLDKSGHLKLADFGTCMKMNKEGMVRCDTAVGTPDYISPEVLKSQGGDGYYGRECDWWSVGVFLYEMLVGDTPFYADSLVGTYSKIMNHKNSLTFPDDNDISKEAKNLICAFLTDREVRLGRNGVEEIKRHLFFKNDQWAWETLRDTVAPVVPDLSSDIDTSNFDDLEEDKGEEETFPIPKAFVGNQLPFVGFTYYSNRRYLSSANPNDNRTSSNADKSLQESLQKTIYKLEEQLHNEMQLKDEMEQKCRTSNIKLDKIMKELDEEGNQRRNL
Method: (§1) Exemplary compounds were tested for ability to inhibit Rho-associated protein kinase isoform 1 (ROCK1) and Rho-associated protein kinase isoform 2 (ROCK2). Assay procedures and results are described below.
(§2) Part I—Procedure for Determining ROCK Inhibition Ability of Test Compounds Using an Isolated Enzyme Assay
(§3) Protein constructs were purified from a baculovirus expression system. The peptide substrate was fluorescent LANCE® Ultra ULight-CREBtide: […] (PerkinElmer, # TRF0107-D). Kinase reactions were carried out in a 10 μL volume in 384-well plates: 50 nM ULight-CREBtide substrate, 2 nM constitutively active ROCK1 or ROCK2 kinase, and test compound in DMSO (or DMSO only for controls) were diluted into assay buffer containing 50 mM Tris-HCl (pH=7.5), 10 mM MgCl2, 1 mM EGTA, 0.01% Tween-20, and 2 mM DTT such that the final concentration of DMSO was 0.5%. After a 90 minute incubation at room temperature on a shaker table, the kinase reaction was stopped by addition of 10 mM EDTA, and phosphorylation of the substrate was detected by adding 1 nM LANCE® Ultra Europium-anti-phospho-CREB (ser133) antibody (PerkinElmer, # TRF0200-D) and incubating for 60 minutes on a shaker at room temperature. The fluorescence resonance energy transfer (FRET) signals were read and analyzed on an Envision™ 2103 Multilabel Reader (Perkin Elmer). The concentration of test compound required to inhibit substrate phosphorylation by 50% (the IC50) was calculated by non-linear regression using GraphPad PRIZM.

[2] = target: T2, GST-tagged human ROCK2 catalytic domain 1-553 (Homo sapiens, UniProt O75116); experiment: Isolated Enzyme Assay, ROCK2 (LANCE Ultra ULight-CREBtide FRET); type: biochemical; conditions: 30 μM highest concentration tested, read-out: Results from Isolated Enzyme Assay IC50 (μM) ROCK2
T2 construct: GST-tagged human ROCK2 catalytic domain 1-553 from Carna Biosciences (Cat #01-110); purchased Carna Biosciences 01-110; host or cells: baculovirus expression system
T2 sequence (O75116 1-553): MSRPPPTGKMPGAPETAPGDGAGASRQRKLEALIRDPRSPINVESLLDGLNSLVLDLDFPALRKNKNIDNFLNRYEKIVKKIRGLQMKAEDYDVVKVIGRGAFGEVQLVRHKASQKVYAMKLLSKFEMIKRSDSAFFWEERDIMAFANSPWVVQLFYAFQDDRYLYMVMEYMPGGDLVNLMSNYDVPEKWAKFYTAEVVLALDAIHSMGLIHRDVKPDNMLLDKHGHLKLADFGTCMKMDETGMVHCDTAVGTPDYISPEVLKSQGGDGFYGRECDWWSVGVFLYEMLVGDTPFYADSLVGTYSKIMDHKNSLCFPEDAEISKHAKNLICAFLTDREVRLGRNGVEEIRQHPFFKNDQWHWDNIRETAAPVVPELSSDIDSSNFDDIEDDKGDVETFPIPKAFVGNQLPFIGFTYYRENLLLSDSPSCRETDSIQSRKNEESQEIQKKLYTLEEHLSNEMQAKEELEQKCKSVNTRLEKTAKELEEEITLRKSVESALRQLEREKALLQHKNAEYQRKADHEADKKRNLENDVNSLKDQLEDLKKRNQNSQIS
Method: as §1, §2, §3

ROCK2 = target: T3, ROCK2 (Homo sapiens, UniProt O75116); experiment: Cell-Based Assay, ROCK2 (HAP1 knockout cells, phospho-MYPT1 Thr853 ELISA); conditions: read-out: Results from Cell-Based Assay IC50 (μM) ROCK2
T3 construct: endogenous in cells; host or cells: HAP1 knockout cells
T3 sequence (O75116 whole entry): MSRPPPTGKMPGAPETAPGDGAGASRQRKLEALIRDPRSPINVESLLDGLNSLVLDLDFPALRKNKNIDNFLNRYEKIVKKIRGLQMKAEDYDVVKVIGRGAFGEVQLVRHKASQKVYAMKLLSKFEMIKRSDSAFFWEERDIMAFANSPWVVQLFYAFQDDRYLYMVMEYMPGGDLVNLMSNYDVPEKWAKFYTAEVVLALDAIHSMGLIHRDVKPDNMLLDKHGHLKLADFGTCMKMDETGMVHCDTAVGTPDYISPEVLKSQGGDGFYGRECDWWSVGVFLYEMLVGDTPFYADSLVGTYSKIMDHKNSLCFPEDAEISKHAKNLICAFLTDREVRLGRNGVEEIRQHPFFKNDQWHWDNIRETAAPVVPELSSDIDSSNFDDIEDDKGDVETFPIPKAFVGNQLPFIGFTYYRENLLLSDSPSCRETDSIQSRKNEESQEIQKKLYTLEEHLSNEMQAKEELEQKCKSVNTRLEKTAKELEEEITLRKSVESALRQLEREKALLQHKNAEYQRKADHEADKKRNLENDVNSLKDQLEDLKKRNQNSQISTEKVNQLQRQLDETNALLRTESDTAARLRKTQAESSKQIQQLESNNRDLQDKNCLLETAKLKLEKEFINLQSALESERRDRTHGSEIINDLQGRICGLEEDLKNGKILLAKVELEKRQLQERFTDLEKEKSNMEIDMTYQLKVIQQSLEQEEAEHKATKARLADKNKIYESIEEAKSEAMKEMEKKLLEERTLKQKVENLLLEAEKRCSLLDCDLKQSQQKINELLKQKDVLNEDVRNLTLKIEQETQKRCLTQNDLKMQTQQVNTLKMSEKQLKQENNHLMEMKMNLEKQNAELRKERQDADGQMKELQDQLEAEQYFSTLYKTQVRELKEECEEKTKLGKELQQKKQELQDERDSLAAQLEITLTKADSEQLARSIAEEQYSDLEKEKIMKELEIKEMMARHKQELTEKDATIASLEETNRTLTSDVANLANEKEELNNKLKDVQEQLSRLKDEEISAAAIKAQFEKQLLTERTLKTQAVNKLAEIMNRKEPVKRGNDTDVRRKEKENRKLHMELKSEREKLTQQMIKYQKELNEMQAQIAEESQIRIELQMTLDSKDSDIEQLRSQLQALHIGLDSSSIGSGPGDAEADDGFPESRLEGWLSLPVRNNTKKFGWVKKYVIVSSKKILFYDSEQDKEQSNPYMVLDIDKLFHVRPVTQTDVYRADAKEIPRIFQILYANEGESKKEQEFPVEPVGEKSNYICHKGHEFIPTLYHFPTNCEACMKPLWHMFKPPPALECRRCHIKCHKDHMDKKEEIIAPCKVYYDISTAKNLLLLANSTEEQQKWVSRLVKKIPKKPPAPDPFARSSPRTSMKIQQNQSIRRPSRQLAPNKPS
Method: Part II—Procedure for Determining ROCK Inhibition Ability of Test Compounds Using a Cell-Base Assay
The Cell-Based Assay for determining ROCK inhibition ability of test compounds utilized a genetically modified HAP1 cell line engineered to eliminate expression of either ROCK1 or ROCK2. In the procedure, HAP1 knockout cells are grown in Iscove's Modified Dulbecco's Medium that is additionally supplemented with 10% fetal bovine and 1x antibiotic-antimycotic mixture. Cells are plated in 96 well tissue culture plates at 1×10^5 cells/well (100 μL, of cells at 1×10^6/mL). Test compounds are solubilized in DMSO and diluted into the same media used to grow the cells. A 100 μL, aliquot of each compound dilution in media is added to each well containing the HAP1 cells and incubated at 37° C. for 30 minutes. Following compound incubation, the cells are pelleted by centrifugation at 1800 rpm for 5 minutes at 4° C. Media is removed from the cell pellet and the cells lysed and de-salted. An 80 μL, aliquot of each cell lysate is added to a single well of a 96-well high binding ELISA plate which has been pre-coated with a MYPT1 capture antibody and incubated at 4° C. overnight. The following day the ELISA plate is washed 4× with 0.05% Tween-20 in PBS. After washing, an anti-phospho-MYPT1 (Thr853) antibody is added and allowed to bind for 1 hour at room temperature. The wash step is repeated, and then an anti-rabbit HRP detection antibody is added and allowed to incubate at room temperature for 1 hour. The wash step is then repeated and 100 μL/well 1-Step™ Ultra TMB substrate is added to the ELISA plate and allowed to develop for approximately 5 minutes. The reaction is stopped by addition of H2SO4. Absorbance is read at 450 OD. Data is analyzed using GraphPad Prism software to calculate the 50% inhibitory concentration of test compound (IC50).

[3] = phospho-MYPT1, 30 μM highest concentration tested

IC50 ([1]; isolated enzyme assay) [µM] | IC50 ([2]; isolated enzyme assay) [µM] | Compound | also measured
< 1 | < 1 | O=C1CCCN1c1cc(-c2nsc(Nc3ccc4[nH]ncc4c3Cl)n2)ccn1 [IV-52] | –
> 30 | > 30 | COc1cccc(C(=O)Nc2cncc(-c3nsc(Nc4ccc5[nH]ncc5c4Cl)n3)c2)c1 [IV-101] | IC50 (ROCK2; numeric bound): > 10 µM
– | – | Cc1nc(C)c(C(=O)Nc2cccc(-c3nsc(Nc4ccc5[nH]ncc5c4Cl)n3)c2)s1 [Compound A-11] | IC50 ([1]; isolated enzyme): < 1 µM; IC50 ([2]; isolated enzyme): < 1 µM; IC50 (ROCK2; [3]): < 1 µM
– | – | Cn1nc(C(=O)Nc2cccc(-c3nsc(Nc4ccc5[nH]ncc5c4Cl)n3)c2)cc1C(F)(F)F [Compound A-13] | IC50 ([1]; isolated enzyme): < 1 µM; IC50 ([2]; isolated enzyme): < 1 µM; IC50 (ROCK2; [3]): < 1 µM
– | – | Cc1cc(C(=O)Nc2cccc(-c3nsc(Nc4ccc5[nH]ncc5c4Cl)n3)c2)on1 [Compound A-18] | IC50 ([1]; isolated enzyme): < 1 µM; IC50 ([2]; isolated enzyme): < 1 µM; IC50 (ROCK2; [3]): < 1 µM
< 1 | < 1 | O=C(NC(CO)CO)c1cc(-c2nsc(Nc3ccc4[nH]ncc4c3Cl)n2)ccc1F [IV-21] | IC50 (ROCK2; class symbols): 1 to 15 µM
> 30 | > 30 | Cc1cnc(-c2cncc(-c3nsc(Nc4ccc5[nH]ncc5c4Cl)n3)c2)o1 [IV-103] | IC50 (ROCK2; numeric bound): > 10 µM
– | – | Cn1cc(CC(=O)Nc2cccc(-c3nsc(Nc4ccc5[nH]ncc5c4Cl)n3)c2)cn1 [Compound A-20] | IC50 ([1]; isolated enzyme): < 1 µM; IC50 ([2]; isolated enzyme): < 1 µM; IC50 (ROCK2; [3]): < 1 µM
15 to 30 | 1 to 15 | Cc1c(S(=O)(=O)Nc2cccc(-c3nsc(Nc4ccc5[nH]ncc5c4Cl)n3)c2)cnn1C(F)F [IV-51] | –
> 30 | > 30 | Cn1cc(-c2nsc(Nc3ccc4[nH]ncc4c3Cl)n2)cc(C(=O)O)c1=O [IV-91] | –
> 30 | 15 to 30 | Cn1nccc1C(=O)NC[C@@H]1CCCN1c1nsc(Nc2ccc3[nH]ncc3c2Cl)n1 [IV-110] | –
> 30 | < 1 | O=C(Nc1cncc(-c2nsc(Nc3ccc4[nH]ncc4c3Cl)n2)c1)c1cncs1 [IV-18] | –
> 30 | < 1 | Cc1cc(NC(=O)c2cc(C)nn2C)cc(-c2nsc(Nc3ccc4[nH]ncc4c3Cl)n2)n1 [IV-37] | –
> 30 | 1 to 15 | CN(C)C(=O)c1cccc(-c2nsc(Nc3ccc4[nH]ncc4c3Cl)n2)c1 [IV-87] | –
> 30 | > 30 | Cc1nn(C(F)F)cc1S(=O)(=O)Nc1cccc(-c2nsc(Nc3ccc4[nH]ncc4c3Cl)n2)c1 [IV-98] | –
1 to 15 | 1 to 15 | CN(C)CCn1cnc2c(-c3nsc(Nc4ccc5[nH]ncc5c4Cl)n3)cccc21 [IV-67] | –
1 to 15 | 1 to 15 | O=C(c1cccc(-c2nsc(Nc3ccc4[nH]ncc4c3Cl)n2)c1)N1CCCC1 [IV-86] | –
– | – | O=C(Nc1cccc(-c2nsc(Nc3ccc4[nH]ncc4c3)n2)c1)c1c[nH]cn1 [Compound A-1] | IC50 ([1]; isolated enzyme): 1 to 15 µM; IC50 ([2]; isolated enzyme): < 1 µM
> 30 | 1 to 15 | Cc1nc2ccccc2c(=O)n1-c1cccc(-c2nsc(Nc3ccc4[nH]ncc4c3Cl)n2)c1 [IV-111] | –
> 30 | < 1 | Cn1cc(-c2nsc(Nc3ccc4[nH]ncc4c3Cl)n2)cc(NC(=O)c2cnccn2)c1=O [IV-1] | –
< 1 | 1 to 15 | Cc1nc(S(=O)(=O)Nc2cccc(-c3nsc(Nc4ccc5[nH]ncc5c4Cl)n3)c2)cn1C [IV-41] | –
> 30 | > 30 | O=C(Nc1cc(-c2nsc(Nc3ccc4[nH]ncc4c3Cl)n2)ccn1)c1cocn1 [IV-96] | –
> 30 | < 1 | O=C(c1cccc(-c2nsc(Nc3ccc4[nH]ncc4c3Cl)n2)c1)N1CCc2ccccc2C1 [IV-84] | –
> 30 | > 30 | O=C1CCCN1c1cc(-c2nsc(Nc3ccc4[nH]ncc4c3Cl)n2)cn2ccnc12 [IV-92] | –

IC50 ([1]; isolated enzyme assay) [µM] | IC50 ([2]; isolated enzyme assay) [µM] | Compound | also measured
> 30 | > 30 | Cc1coc(-c2cccc(-c3nsc(Nc4cc5cn[nH]c5cc4F)n3)c2)n1 [IV-93] | –
– | – | Cc1n[nH]c2ccc(Nc3nc(-c4cccc(NC(=O)c5ccnn5C)c4)ns3)cc12 [Compound A-8] | IC50 ([1]; isolated enzyme): > 30 µM; IC50 ([2]; isolated enzyme): < 1 µM
– | – | O=C(Nc1cccc(-c2nsc(Nc3ccc4[nH]ncc4c3)n2)c1)c1cccnc1 [Compound A-2] | IC50 ([1]; isolated enzyme): > 30 µM; IC50 ([2]; isolated enzyme): < 1 µM
> 30 | > 30 | O=c1c2ccccc2ncn1-c1cccc(-c2nsc(Nc3ccc4[nH]ncc4c3Cl)n2)c1 [IV-95] | –
1 to 15 | < 1 | CC(C)N1CCN(c2cc(-c3nsc(Nc4ccc5[nH]ncc5c4Cl)n3)cn(C)c2=O)C1=O [IV-3] | –
> 30 | < 1 | Cn1cc(-c2nsc(Nc3ccc4[nH]ncc4c3Cl)n2)cc(N2CCOC2=O)c1=O [IV-4] | –
– | – | Cn1nccc1C(=O)Nc1cncc(-c2nsc(Nc3ccc4[nH]ncc4c3Cl)n2)c1 [Compound A-6] | IC50 ([1]; isolated enzyme): > 30 µM; IC50 ([2]; isolated enzyme): < 1 µM
> 30 | > 30 | CP(C)(=O)c1cccc(-c2nsc(Nc3ccc4[nH]ncc4c3Cl)n2)c1 [IV-102] | –
1 to 15 | 1 to 15 | O=C(c1cccc(-c2nsc(Nc3ccc4[nH]ncc4c3Cl)n2)c1)N1CCOCC1 [IV-80] | –
> 30 | > 30 | O=C(Cn1cc(Cl)cn1)Nc1cccc(-c2nsc(Nc3ccc4[nH]ncc4c3Cl)n2)c1 [IV-104] | –
> 30 | 1 to 15 | Cn1cc(-c2nsc(Nc3ccc4[nH]ncc4c3Cl)n2)cc(N2CCCC2=O)c1=O [IV-11] | –
> 30 | > 30 | Cn1nccc1C(=O)NC[C@@H]1CCN(c2nsc(Nc3ccc4[nH]ncc4c3Cl)n2)C1 [IV-94] | –
– | – | Cc1n[nH]c2ccc(Nc3nc(-c4ccnc(NC(=O)c5ccnn5C)c4)ns3)cc12 [Compound A-5] | IC50 ([1]; isolated enzyme): > 30 µM; IC50 ([2]; isolated enzyme): > 30 µM
– | – | Cc1n[nH]c2ccc(Nc3nc(-c4cncc(NC(=O)c5ccnn5C)c4)ns3)cc12 [Compound A-7] | IC50 ([1]; isolated enzyme): > 30 µM; IC50 ([2]; isolated enzyme): > 30 µM
1 to 15 | < 1 | CS(=O)(=O)Nc1cccc(-c2nsc(Nc3ccc4[nH]ncc4c3Cl)n2)c1 [IV-16] | –
> 30 | > 30 | N#Cc1c(Nc2nc(-c3cccc([N+](=O)[O-])c3)ns2)ccc2[nH]ncc12 [IV-100] | –
> 30 | 1 to 15 | O=S(=O)(Nc1cccc(-c2nsc(Nc3ccc4[nH]ncc4c3Cl)n2)c1)c1cccnc1 [IV-40] | –
< 1 | < 1 | Cc1cc(=O)n(-c2cc(-c3nsc(Nc4ccc5[nH]ncc5c4Cl)n3)ccn2)n1C [IV-23] | –
15 to 30 | > 30 | NC[C@@H]1CCCN1c1nsc(Nc2ccc3[nH]ncc3c2Cl)n1 [IV-109] | –
> 30 | < 1 | O=C(Nc1cncc(-c2nsc(Nc3ccc4[nH]ncc4c3Cl)n2)c1)c1cocn1 [IV-36] | –
1 to 15 | 1 to 15 | CN1CCN(C(=O)c2cccc(-c3nsc(Nc4ccc5[nH]ncc5c4Cl)n3)c2)CC1 [IV-85] | –
1 to 15 | 1 to 15 | O=c1ccccn1-c1cccc(-c2nsc(Nc3ccc4[nH]ncc4c3Cl)n2)c1 [IV-53] | –
> 30 | > 30 | CS(=O)(=O)c1cccc(-c2nsc(Nc3ccc4[nH]ncc4c3Cl)n2)c1 [IV-99] | –

From US10556898B2, “Indazolyl-1,2,4-thiadiazolamines and related compounds for inhibition of Rho-associated protein kinase and the treatment of disease” (Lycera Corporation, priority 2016, dated 2020)
